Patent US10759810B2 (AO “TATKHIMFARMPREPARATY”, priority 2016, dated 2020)
Converted amounts (≈) assume the structure as drawn.

Tests used:
[1] = tested on: Bacillus subtilis 168 (museum strain); assay: MIC, serial dilutions in Mueller-Hinton broth; type: cell-based; conditions: inoculum 10^7 CFU/ml; gram-positive
Description: (§1) Measurement of antibacterial activity was carried out on the strains of Staphylococcus aureus ATCC 29213 (museum strain), Staphylococcus epidermidis (clinical isolate), Micrococcus luteus (clinical isolate), Bacillus subtilis 168 (museum strain), Escherichia coli ATCC 25922 (museum strain), Salmonella typhimurium TA100 (museum strain), Pseudomonas aeruginosa ATCC 27853 (museum strain). A comparative assessment of the spectrum of antibacterial action on reference strains and clinical isolates of gram-positive microorganisms was carried out using a micromethod for determining the minimum inhibitory concentration (MIC) using serial dilutions in Mueller-Hinton broth using 96-well sterile plates.
(§2) The first lowest concentration of the antibiotic (from a series of successive dilutions), where bacterial growth is not visually determined, is considered to be the minimum inhibitory concentration (MIC).
(§3) For the preparation of inoculum (infectious material used for artificial contamination), intended for the study of antibacterial activity, was used a pure daily culture of bacteria grown on a dense nutrient medium (agar LB medium). In a sterile isotonic solution of sodium chloride, a suspension of microorganisms was prepared, adjusting the inoculum density to 0.5 according to the McFarland standard (1.5·10^8 CFU/ml). Then, the resulting inoculum was diluted to a concentration of 10^7 CFU/ml with LB-broth. The inoculum was used for 15 minutes after preparation; the purity of the bacterial strains was monitored before each experiment.
(§4) 100 μl of Muller-Hinton broth was added to the wells of each plate; the test base was introduced into the first well at a concentration of 128 μg/ml in a volume of 100 μl and its concentration was adjusted to 0.25 μg/ml by consecutive two-fold dilution. […] Each preparation in the experiment was titrated three times. […] In addition, the purity of nutrient media and solvents was monitored. The plates were incubated in a thermostat at […] for 24 hours.
(§5) The growth of cultures was assessed visually, comparing the growth of microorganisms in the presence of test compounds with the growth of culture without them.

[2] = tested on: Escherichia coli ATCC 25922 (museum strain); assay: MIC, serial dilutions in Mueller-Hinton broth; type: cell-based; conditions: inoculum 10^7 CFU/ml; gram-negative
Description: as §1, §2, §3, §4, §5

[3] = tested on: Micrococcus luteus (clinical isolate); assay: MIC, serial dilutions in Mueller-Hinton broth; type: cell-based; conditions: inoculum 10^7 CFU/ml; gram-positive
Description: as §1, §2, §3, §4, §5

[4] = tested on: Pseudomonas aeruginosa ATCC 27853 (museum strain); assay: MIC, serial dilutions in Mueller-Hinton broth; type: cell-based; conditions: inoculum 10^7 CFU/ml; gram-negative
Description: as §1, §2, §3, §4, §5

[5] = tested on: Salmonella typhimurium TA100 (museum strain); assay: MIC, serial dilutions in Mueller-Hinton broth; type: cell-based; conditions: inoculum 10^7 CFU/ml; gram-negative
Description: as §1, §2, §3, §4, §5

[6] = tested on: Staphylococcus aureus ATCC 29213 (museum strain); assay: MIC, serial dilutions in Mueller-Hinton broth; type: cell-based; conditions: inoculum 10^7 CFU/ml; gram-positive
Description: as §1, §2, §3, §4, §5

[7] = tested on: Staphylococcus epidermidis (clinical isolate); assay: MIC, serial dilutions in Mueller-Hinton broth; type: cell-based; conditions: inoculum 10^7 CFU/ml; gram-positive
Description: as §1, §2, §3, §4, §5

S. aureus MRSA 1053 = assay: MIC on clinical strain; type: cell-based, Staphylococcus aureus; conditions: inoculum 10^7 CFU/ml
Description: as §1, §2, §3, §4, §5

S. aureus MRSA 1065 = assay: MIC on clinical strain; type: cell-based, Staphylococcus aureus; conditions: inoculum 10^7 CFU/ml
Description: as §1, §2, §3, §4, §5

S. aureus MRSA 1130 = assay: MIC on clinical strain; type: cell-based, Staphylococcus aureus; conditions: inoculum 10^7 CFU/ml
Description: as §1, §2, §3, §4, §5

S. aureus MRSA 1131 = assay: MIC on clinical strain; type: cell-based, Staphylococcus aureus; conditions: inoculum 10^7 CFU/ml
Description: as §1, §2, §3, §4, §5

S. aureus MRSA 1143 = assay: MIC on clinical strain; type: cell-based, Staphylococcus aureus; conditions: inoculum 10^7 CFU/ml
Description: as §1, §2, §3, §4, §5

S. aureus MRSA 1163 = assay: MIC on clinical strain; type: cell-based, Staphylococcus aureus; conditions: inoculum 10^7 CFU/ml
Description: as §1, §2, §3, §4, §5

S. aureus MRSA 1168 = assay: MIC on clinical strain; type: cell-based, Staphylococcus aureus; conditions: inoculum 10^7 CFU/ml
Description: as §1, §2, §3, §4, §5

S. aureus MRSA 1173 = assay: MIC on clinical strain; type: cell-based, Staphylococcus aureus; conditions: inoculum 10^7 CFU/ml
Description: as §1, §2, §3, §4, §5

S. aureus MRSA 2020 = assay: MIC on clinical strain; type: cell-based, Staphylococcus aureus; conditions: inoculum 10^7 CFU/ml
Description: as §1, §2, §3, §4, §5

S. aureus MRSA 967 = assay: MIC on clinical strain; type: cell-based, Staphylococcus aureus; conditions: inoculum 10^7 CFU/ml
Description: as §1, §2, §3, §4, §5

S. aureus MRSA 981 = assay: MIC on clinical strain; type: cell-based, Staphylococcus aureus; conditions: inoculum 10^7 CFU/ml
Description: as §1, §2, §3, §4, §5

S. aureus MRSA 983 = assay: MIC on clinical strain; type: cell-based, Staphylococcus aureus; conditions: inoculum 10^7 CFU/ml
Description: as §1, §2, §3, §4, §5

ICR mice (CD-1) = assay: General acute toxicity, fixed-dose method, intragastric administration; type: in vivo, mouse; conditions: for Number of animals in the group/number of dead animals / LD10 / LD16 / LD50 with confidence interval / LD84: mouse
Description: The acute toxicity of compound I-2 was studied using the fixed-dose method in ICR mice (CD-1) (6-8 weeks, 20-25 g) of both sexes, 6 animals per group. The starting dose for testing compound I-2 was 5000 mg/kg. The intragastric (oral) administration of compound I-2 to animals (<2.5 ml/100 g) using a gastric probe was used.

[8] = tested on: microorganism strains under study; assay: Antibacterial activity (MIC), whole strain panel; type: cell-based; conditions: in words, from Table 1
Description: as §1, §2
(§6) For the preparation of inoculum (infectious material used for artificial contamination), intended for the study of antibacterial activity, was used a pure daily culture of bacteria grown on a dense nutrient medium (agar LB medium). […] The inoculum was used for 15 minutes after preparation; the purity of the bacterial strains was monitored before each experiment. […]

[9] = tested on: gram-positive microorganisms; assay: Antibacterial activity (MIC), gram-positive strains; type: cell-based; conditions: in words, versus comparison drugs
Description: as §1, §2, §6

[10] = tested on: gram-negative bacterial strains; assay: Antibacterial activity (MIC), gram-negative strains; type: cell-based; conditions: in words
Description: as §1, §2, §6

[11] = tested on: clinical freshly isolated strains of Staphylococcus aureus MRSA; assay: Antibacterial activity (MIC), clinical MRSA strains overall; type: cell-based; conditions: in words, in almost all cases
Description: as §1, §2, §6

Cc1ncc(CN2CCN(c3cc4c(cc3F)c(=O)c(C(=O)O)cn4C3CC3)CC2)c(CO)c1O [Compound I-2, 1-cyclopropyl-6-fluoro-7-(4-((5-hydroxy-4-hydroxymethyl-6-methylpyridine-3-yl)methyl)piperazinyl)-4-oxo-1,4-dihydroquinolin-3-carboxylic acid]
MIC, B. subtilis [1]: <2 µg/mL
MIC, E. coli [2]: 2 µg/mL (≈ 4.14 µM)
MIC, M. luteus [3]: 4 µg/mL (≈ 8.29 µM)
MIC, P. aerugenosa [4]: >64 µg/mL
MIC, S. typhimurium [5]: 2 µg/mL (≈ 4.14 µM)
MIC, S. aureus [6]: 2 µg/mL (≈ 4.14 µM)
MIC, S. epidermidis [7]: 2 µg/mL (≈ 4.14 µM)
The value of the MIC, S. aureus MRSA 1053 (S. aureus MRSA 1053): 16 µg/mL
The value of the MIC, S. aureus MRSA 1065 (S. aureus MRSA 1065): 32 µg/mL
The value of the MIC, S. aureus MRSA 1130 (S. aureus MRSA 1130): 16 µg/mL
The value of the MIC, S. aureus MRSA 1131 (S. aureus MRSA 1131): 16 µg/mL
The value of the MIC, S. aureus MRSA 1143 (S. aureus MRSA 1143): 32 µg/mL
The value of the MIC, S. aureus MRSA 1163 (S. aureus MRSA 1163): 0.5 µg/mL
The value of the MIC, S. aureus MRSA 1168 (S. aureus MRSA 1168): 0.25 µg/mL
The value of the MIC, S. aureus MRSA 1173 (S. aureus MRSA 1173): 16 µg/mL
The value of the MIC, S. aureus MRSA 2020 (S. aureus MRSA 2020): 0.25 µg/mL
The value of the MIC, S. aureus MRSA 967 (S. aureus MRSA 967): 16 µg/mL
The value of the MIC, S. aureus MRSA 981 (S. aureus MRSA 981): 16 µg/mL
The value of the MIC, S. aureus MRSA 983 (S. aureus MRSA 983): 8 µg/mL
changes during the autopsy of mice (ICR mice (CD-1); end of experiment, pathomorphological dissection): No changes were observed
hazard class (ICR mice (CD-1); from acute toxicity in mice): 4
behaviour after dosing (ICR mice (CD-1); mice of both sexes, 5000 mg/kg intragastric): slight inhibition of activity
death of animals (mortality) (ICR mice (CD-1); mice of both sexes, 5000 mg/kg intragastric, whole experiment): not observed
abnormalities during the observation period (ICR mice (CD-1); mice, 5000 mg/kg intragastric): no abnormalities were observed
time until animals began to take food and water (ICR mice (CD-1); mice, 5000 mg/kg intragastric): 1.5 to 2 h
time until behavior of animals returned to normal (ICR mice (CD-1); mice, 5000 mg/kg intragastric): 20 to 30 min
mean lethal dose (ICR mice (CD-1); mice, intragastric, up to 5000 mg/kg): not detected
Number of animals in the group/number of dead animals (ICR mice (CD-1); females, 5000 mg/kg intragastric): 6/0
LD10 (ICR mice (CD-1); females, intragastric): >5000 mg/kg
LD16 (ICR mice (CD-1); females, intragastric): >5000 mg/kg
LD50 with confidence interval (ICR mice (CD-1); females, intragastric): >5000 mg/kg
LD84 (ICR mice (CD-1); females, intragastric): >5000 mg/kg
Number of animals in the group/number of dead animals (ICR mice (CD-1); males, 5000 mg/kg intragastric): 6/0
LD10 (ICR mice (CD-1); males, intragastric): >5000 mg/kg
LD16 (ICR mice (CD-1); males, intragastric): >5000 mg/kg
LD50 with confidence interval (ICR mice (CD-1); males, intragastric): >5000 mg/kg
LD84 (ICR mice (CD-1); males, intragastric): >5000 mg/kg
antibacterial activity against the microorganism strains under study [8]: most active
antibacterial action with respect to gram-positive microorganisms [9]: comparable with the comparison drugs
antibacterial activity in relation to gram-negative bacterial strains [10]: low antibacterial activity
MIC on clinical MRSA strains compared with ceftriaxone [11]: superior to ceftriaxone
